From patent publication US20080051387A1, “TETRAHYDROPYRIDO[3,4-D]PYRIMIDINES AND RELATED ANALOGUES” (priority 2006, published 2008)

Each compound was assayed against T1, chimeric human H3 receptor (Homo sapiens, UniProt Q9Y5N1) (assay: Chimeric human H3 receptor screening GTP binding assay (inhibition of histamine-stimulated GTP-gamma35S binding, Example 8)). Conditions: 1 h; assay described in Example 8; symbol "!" in column headed Ki; read-out: Ki ("!": percent inhibition of agonist-induced GTP-gammaS binding to H3).
T1 construct: rat Galpha-i2 (Gnai2, rat); made in house; host or cells: Sf9 insect cells (baculovirus); P2 membranes
T1 sequence (Q9Y5N1 with tags, fused parts or gaps): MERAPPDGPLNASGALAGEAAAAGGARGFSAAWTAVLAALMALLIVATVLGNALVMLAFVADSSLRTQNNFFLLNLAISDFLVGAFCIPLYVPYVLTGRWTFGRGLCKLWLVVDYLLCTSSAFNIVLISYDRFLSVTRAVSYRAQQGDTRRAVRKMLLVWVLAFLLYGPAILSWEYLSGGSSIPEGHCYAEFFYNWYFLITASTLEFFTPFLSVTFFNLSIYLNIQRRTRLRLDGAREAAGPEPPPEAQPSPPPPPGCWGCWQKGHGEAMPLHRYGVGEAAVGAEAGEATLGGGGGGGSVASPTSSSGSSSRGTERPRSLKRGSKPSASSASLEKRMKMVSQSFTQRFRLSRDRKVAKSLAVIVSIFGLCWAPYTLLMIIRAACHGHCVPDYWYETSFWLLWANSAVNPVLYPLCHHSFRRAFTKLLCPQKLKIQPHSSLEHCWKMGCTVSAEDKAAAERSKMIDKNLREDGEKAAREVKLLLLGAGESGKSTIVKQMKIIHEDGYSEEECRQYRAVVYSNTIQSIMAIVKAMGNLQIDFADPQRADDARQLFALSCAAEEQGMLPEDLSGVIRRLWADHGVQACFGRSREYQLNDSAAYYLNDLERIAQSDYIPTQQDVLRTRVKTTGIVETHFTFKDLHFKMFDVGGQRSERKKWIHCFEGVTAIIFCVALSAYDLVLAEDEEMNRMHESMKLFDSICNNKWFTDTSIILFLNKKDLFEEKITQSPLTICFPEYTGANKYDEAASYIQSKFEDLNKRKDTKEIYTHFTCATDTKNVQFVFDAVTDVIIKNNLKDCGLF
Assay type: biochemical
Summary of the method: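 Sf9 membranes co-expressing chimeric human H3 receptor and heterotrimeric G-protein (35 μg protein) incubated 60 min at room temperature with 4 μM compound, 1 μM histamine and 125 pM GTP-gamma35S in pH 7.4 buffer with 10 μM GDP. Filter-bound radioactivity, nonspecific (10 μM GTP-gammaS) subtracted, reported as % inhibition of histamine signal.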

| SMILES | inhibition at 4 µM [%] |
| --- | --- |
| CCCCOc1ccc(C(=O)N2CCc3cnc(N4CCN(C5CCC5)CC4)nc3CC2)cc1 [Compound 382, 7-(4-butoxybenzoyl)-2-(4-cyclobutylpiperazin-1-yl)-6,7,8,9-tetrahydro-5H-pyrimido[4,5-d]azepine] | ≥ 90 |
| CCOc1ccc(C(=O)N2CCc3cnc(N4CCN(C5CCC5)CC4)nc3CC2)cc1OCC [Compound 383, 2-(4-cyclobutylpiperazin-1-yl)-7-(3,4-diethoxybenzoyl)-6,7,8,9-tetrahydro-5H-pyrimido[4,5-d]azepine] | ≥ 90 |
| COc1cc(C(=O)N2CCc3cnc(N4CCN(C5CCC5)CC4)nc3CC2)cc(OC)c1OC [Compound 384, 2-(4-cyclobutylpiperazin-1-yl)-7-(3,4,5-trimethoxybenzoyl)-6,7,8,9-tetrahydro-5H-pyrimido[4,5-d]azepine] | ≥ 90 |
| CCOc1cc(C(=O)N2CCc3cnc(N4CCN(C5CCC5)CC4)nc3CC2)cc(OCC)c1OCC [Compound 385, 2-(4-cyclobutylpiperazin-1-yl)-7-(3,4,5-triethoxybenzoyl)-6,7,8,9-tetrahydro-5H-pyrimido[4,5-d]azepine] | ≥ 90 |
| O=C(c1cccc(Cl)c1)N1CCc2cnc(N3CCN(C4CCC4)CC3)nc2CC1 [Compound 386, 7-(3-chlorobenzoyl)-2-(4-cyclobutylpiperazin-1-yl)-6,7,8,9-tetrahydro-5H-pyrimido[4,5-d]azepine] | ≥ 90 |
| Cc1cccc(C(=O)N2CCc3cnc(N4CCN(C5CCC5)CC4)nc3CC2)c1F [Compound 388, 2-(4-cyclobutylpiperazin-1-yl)-7-(2-fluoro-3-methylbenzoyl)-6,7,8,9-tetrahydro-5H-pyrimido[4,5-d]azepine] | ≥ 90 |
| O=C(c1ccc(F)c(F)c1)N1CCc2cnc(N3CCN(C4CCC4)CC3)nc2CC1 [Compound 390, 2-(4-cyclobutylpiperazin-1-yl)-7-(3,4-difluorobenzoyl)-6,7,8,9-tetrahydro-5H-pyrimido[4,5-d]azepine] | ≥ 90 |
| O=C(c1ccc(F)cc1F)N1CCc2cnc(N3CCN(C4CCC4)CC3)nc2CC1 [Compound 392, 2-(4-cyclobutylpiperazin-1-yl)-7-(2,4-difluorobenzoyl)-6,7,8,9-tetrahydro-5H-pyrimido[4,5-d]azepine] | ≥ 90 |
| O=C(c1ccc(F)c(Cl)c1)N1CCc2cnc(N3CCN(C4CCC4)CC3)nc2CC1 [Compound 393, 7-(3-chloro-4-fluorobenzoyl)-2-(4-cyclobutylpiperazin-1-yl)-6,7,8,9-tetrahydro-5H-pyrimido[4,5-d]azepine] | ≥ 90 |
| O=C(c1cccc(C(F)(F)F)c1)N1CCc2cnc(N3CCN(C4CCC4)CC3)nc2CC1 [Compound 397, 2-(4-cyclobutylpiperazin-1-yl)-7-[3-(trifluoromethyl)benzoyl]-6,7,8,9-tetrahydro-5H-pyrimido[4,5-d]azepine] | ≥ 90 |
| O=C(c1cccc(C(F)(F)F)c1F)N1CCc2cnc(N3CCN(C4CCC4)CC3)nc2CC1 [Compound 399, 2-(4-cyclobutylpiperazin-1-yl)-7-[2-fluoro-3-(trifluoromethyl)benzoyl]-6,7,8,9-tetrahydro-5H-pyrimido[4,5-d]azepine] | ≥ 90 |
| Cc1ccc(C(=O)N2CCc3cnc(N4CCN(C5CCC5)CC4)nc3CC2)cc1Br [Compound 400, 7-(3-bromo-4-methylbenzoyl)-2-(4-cyclobutylpiperazin-1-yl)-6,7,8,9-tetrahydro-5H-pyrimido[4,5-d]azepine] | ≥ 90 |

The next lines start with the values.

| inhibition at 4 µM [%] | SMILES |
| --- | --- |
| ≥ 90 | COc1cc(OC)cc(C(=O)N2CCc3cnc(N4CCN(C5CCC5)CC4)nc3CC2)c1 [Compound 381, 2-(4-cyclobutylpiperazin-1-yl)-7-(3,5-dimethoxybenzoyl)-6,7,8,9-tetrahydro-5H-pyrimido[4,5-d]azepine] |
| ≥ 90 | O=C(c1ccc(Cl)cc1)N1CCc2cnc(N3CCN(C4CCC4)CC3)nc2CC1 [Compound 387, 7-(4-chlorobenzoyl)-2-(4-cyclobutylpiperazin-1-yl)-6,7,8,9-tetrahydro-5H-pyrimido[4,5-d]azepine] |
| ≥ 90 | O=C(c1c(F)cccc1F)N1CCc2cnc(N3CCN(C4CCC4)CC3)nc2CC1 [Compound 389, 2-(4-cyclobutylpiperazin-1-yl)-7-(2,6-difluorobenzoyl)-6,7,8,9-tetrahydro-5H-pyrimido[4,5-d]azepine] |
| ≥ 90 | O=C(c1cc(F)ccc1F)N1CCc2cnc(N3CCN(C4CCC4)CC3)nc2CC1 [Compound 391, 2-(4-cyclobutylpiperazin-1-yl)-7-(2,5-difluorobenzoyl)-6,7,8,9-tetrahydro-5H-pyrimido[4,5-d]azepine] |
| ≥ 90 | Cc1ccc(C(=O)N2CCc3cnc(N4CCN(C5CCC5)CC4)nc3CC2)cc1Cl [Compound 394, 7-(3-chloro-4-methylbenzoyl)-2-(4-cyclobutylpiperazin-1-yl)-6,7,8,9-tetrahydro-5H-pyrimido[4,5-d]azepine] |
| ≥ 90 | Cc1cc(C(=O)N2CCc3cnc(N4CCN(C5CCC5)CC4)nc3CC2)ccc1Cl [Compound 395, 7-(4-chloro-3-methylbenzoyl)-2-(4-cyclobutylpiperazin-1-yl)-6,7,8,9-tetrahydro-5H-pyrimido[4,5-d]azepine] |
| ≥ 90 | O=C(c1ccc(Cl)c(Cl)c1)N1CCc2cnc(N3CCN(C4CCC4)CC3)nc2CC1 [Compound 396, 2-(4-cyclobutylpiperazin-1-yl)-7-(3,4-dichlorobenzoyl)-6,7,8,9-tetrahydro-5H-pyrimido[4,5-d]azepine] |
| ≥ 90 | O=C(c1cc(Cl)cc(Cl)c1)N1CCc2cnc(N3CCN(C4CCC4)CC3)nc2CC1 [Compound 398, 2-(4-cyclobutylpiperazin-1-yl)-7-(3,5-dichlorobenzoyl)-6,7,8,9-tetrahydro-5H-pyrimido[4,5-d]azepine] |
| ≥ 90 | O=C(c1ccc(F)c(Br)c1)N1CCc2cnc(N3CCN(C4CCC4)CC3)nc2CC1 [Compound 401, 7-(3-bromo-4-fluorobenzoyl)-2-(4-cyclobutylpiperazin-1-yl)-6,7,8,9-tetrahydro-5H-pyrimido[4,5-d]azepine] |

Same assay, conditions: 1 h; assay of Example 8; symbol "!" in column headed Ki; read-out: percent inhibition of agonist-induced GTP-gammaS binding to H3

| SMILES | inhibition at 4 µM [%] |
| --- | --- |
| CSc1ccc(C(=O)N2CCc3cnc(N4CCN(C5CCC5)CC4)nc3CC2)cc1 [Compound 369, 2-(4-cyclobutylpiperazin-1-yl)-7-[4-(methylthio)benzoyl]-6,7,8,9-tetrahydro-5H-pyrimido[4,5-d]azepine] | ≥ 90 |
| COc1ccc(C(=O)N2CCc3cnc(N4CCN(C5CCC5)CC4)nc3CC2)cc1F [Compound 371, 2-(4-cyclobutylpiperazin-1-yl)-7-(3-fluoro-4-methoxybenzoyl)-6,7,8,9-tetrahydro-5H-pyrimido[4,5-d]azepine] | ≥ 90 |
| O=C(c1ccc(OC(F)(F)F)cc1)N1CCc2cnc(N3CCN(C4CCC4)CC3)nc2CC1 [Compound 373, 2-(4-cyclobutylpiperazin-1-yl)-7-[4-(trifluoromethoxy)benzoyl]-6,7,8,9-tetrahydro-5H-pyrimido[4,5-d]azepine] | ≥ 90 |
| O=C(c1cccc(Oc2ccccc2)c1)N1CCc2cnc(N3CCN(C4CCC4)CC3)nc2CC1 [Compound 374, 2-(4-cyclobutylpiperazin-1-yl)-7-(3-phenoxybenzoyl)-6,7,8,9-tetrahydro-5H-pyrimido[4,5-d]azepine] | ≥ 90 |
| COc1ccc(C(=O)N2CCc3cnc(N4CCN(C5CCC5)CC4)nc3CC2)cc1OC1CCCC1 [Compound 376, 2-(4-cyclobutylpiperazin-1-yl)-7-[3-(cyclopentyloxy)-4-methoxybenzoyl]-6,7,8,9-tetrahydro-5H-pyrimido[4,5-d]azepine] | ≥ 90 |
| O=C(c1ccc2c(c1)OCO2)N1CCc2cnc(N3CCN(C4CCC4)CC3)nc2CC1 [Compound 377, 7-(1,3-benzodioxol-5-ylcarbonyl)-2-(4-cyclobutylpiperazin-1-yl)-6,7,8,9-tetrahydro-5H-pyrimido[4,5-d]azepine] | ≥ 90 |
| CCCOc1ccc(C(=O)N2CCc3cnc(N4CCN(C5CCC5)CC4)nc3CC2)cc1 [Compound 379, 2-(4-cyclobutylpiperazin-1-yl)-7-(4-propoxybenzoyl)-6,7,8,9-tetrahydro-5H-pyrimido[4,5-d]azepine] | ≥ 90 |

Second part, the compound after the results:

| inhibition at 4 µM [%] | SMILES |
| --- | --- |
| ≥ 90 | CCSc1ccc(C(=O)N2CCc3cnc(N4CCN(C5CCC5)CC4)nc3CC2)cc1 [Compound 370, 2-(4-cyclobutylpiperazin-1-yl)-7-[4-(ethylthio)benzoyl]-6,7,8,9-tetrahydro-5H-pyrimido[4,5-d]azepine] |
| ≥ 90 | O=C(c1ccc(Oc2ccccc2)cc1)N1CCc2cnc(N3CCN(C4CCC4)CC3)nc2CC1 [Compound 372, 2-(4-cyclobutylpiperazin-1-yl)-7-(4-phenoxybenzoyl)-6,7,8,9-tetrahydro-5H-pyrimido[4,5-d]azepine] |
| ≥ 90 | O=C(c1ccc2c(c1)CCO2)N1CCc2cnc(N3CCN(C4CCC4)CC3)nc2CC1 [Compound 375, 2-(4-cyclobutylpiperazin-1-yl)-7-(2,3-dihydro-1-benzofuran-5-ylcarbonyl)-6,7,8,9-tetrahydro-5H-pyrimido[4,5-d]azepine] |
| ≥ 90 | COc1ccc(C(=O)N2CCc3cnc(N4CCN(C5CCC5)CC4)nc3CC2)cc1OC [Compound 378, 2-(4-cyclobutylpiperazin-1-yl)-7-(3,4-dimethoxybenzoyl)-6,7,8,9-tetrahydro-5H-pyrimido[4,5-d]azepine] |
| ≥ 90 | CC(C)Oc1ccc(C(=O)N2CCc3cnc(N4CCN(C5CCC5)CC4)nc3CC2)cc1 [Compound 380, 2-(4-cyclobutylpiperazin-1-yl)-7-(4-isopropoxybenzoyl)-6,7,8,9-tetrahydro-5H-pyrimido[4,5-d]azepine] |
